Values quoted from earlier work as cited in patent US20020112260A1, “Plants having resistance to multiple herbicides and its use” (Asgrow Seed Company LLC, priority 1997, published 2002).

Tested on: soybeans
Conditions: non-STS soybeans

## COc1cc(Cl)nc(NC(=O)NS(=O)(=O)c2ccccc2C(=O)O)n1 [chlorimuron]
  crop injury: can cause significant crop injury

## COc1nc(C)nc(NC(=O)NS(=O)(=O)c2ccsc2C(=O)O)n1 [thifensulfuron]
  crop injury: can cause significant crop injury
